Assay results as given in patent publication US9062124B2, “GIP-based mixed agonists for treatment of metabolic disorders and obesity” (priority 2008, dated 2015).
Where a SMILES comes first, the peptide text is derived from it. Bridges are numbered along the chain shown (N, C = ends). [ ]: non-standard residue; d: D form. PhLac = O=C(O)[C@@H](O)Cc1ccccc1

Key:
[1] = molecular target: T1, glucagon receptor (Homo sapiens, UniProt P47871); test: cAMP synthesis functional assay (firefly luciferase reporter in HEK293 cells), glucagon receptor; assay type: cell-based; details: Table 1; relative to the native hormone of the indicated receptor
T1 construct: expressed in transfected cells; host or cells: HEK293

[2] = molecular target: T2, GLP-1 receptor (Homo sapiens, UniProt P43220); test: cAMP synthesis functional assay (firefly luciferase reporter in HEK293 cells), GLP-1 receptor; assay type: cell-based; details: Table 1; for GLP-1 Receptor relative activity: relative to the native hormone of the indicated receptor
T2 construct: expressed in transfected cells; host or cells: HEK293
T2 sequence (P43220 24-463, species assumed): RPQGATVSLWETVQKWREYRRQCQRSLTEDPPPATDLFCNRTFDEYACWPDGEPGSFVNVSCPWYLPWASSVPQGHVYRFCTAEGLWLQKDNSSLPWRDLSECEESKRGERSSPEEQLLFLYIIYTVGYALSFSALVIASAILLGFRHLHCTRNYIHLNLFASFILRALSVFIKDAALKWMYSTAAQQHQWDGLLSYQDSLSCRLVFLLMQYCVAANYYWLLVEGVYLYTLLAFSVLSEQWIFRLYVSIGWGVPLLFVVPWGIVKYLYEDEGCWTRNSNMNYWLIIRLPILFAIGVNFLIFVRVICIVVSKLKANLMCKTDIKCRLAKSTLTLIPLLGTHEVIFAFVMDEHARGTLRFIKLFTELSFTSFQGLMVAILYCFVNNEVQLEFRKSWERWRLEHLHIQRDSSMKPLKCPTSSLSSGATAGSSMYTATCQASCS

T1 sequence (P47871 26-477): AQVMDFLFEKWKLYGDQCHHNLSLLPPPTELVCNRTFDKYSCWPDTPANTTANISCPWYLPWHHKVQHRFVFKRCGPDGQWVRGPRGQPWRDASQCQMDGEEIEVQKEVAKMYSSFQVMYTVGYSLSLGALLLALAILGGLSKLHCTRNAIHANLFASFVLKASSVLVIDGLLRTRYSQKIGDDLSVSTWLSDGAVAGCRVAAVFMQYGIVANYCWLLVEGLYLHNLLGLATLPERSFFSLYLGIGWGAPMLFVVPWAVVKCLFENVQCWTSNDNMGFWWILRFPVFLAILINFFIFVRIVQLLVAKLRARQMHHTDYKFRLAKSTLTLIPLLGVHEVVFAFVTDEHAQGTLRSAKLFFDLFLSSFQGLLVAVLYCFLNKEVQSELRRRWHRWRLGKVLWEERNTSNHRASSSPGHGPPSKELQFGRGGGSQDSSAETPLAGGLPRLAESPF

SMILES | Glucagon Receptor relative activity [1] | EC50 ([2]; GLP-1 Receptor EC50, nM) | GLP-1 Receptor relative activity [2]
CC[C@H](C)[C@H](NC(=O)[C@H](Cc1ccccc1)NC(=O)[C@@H]1CCC(=O)NCCCC[C@@H]2NC(=O)[C@@H](NC(=O)[C@H](CC(=O)O)NC(=O)[C@H](CC(C)C)NC(=O)[C@H](Cc3ccc(O)cc3)NC(=O)[C@@H](NC(=O)[C@H](CO)NC(=O)[C@H](Cc3ccc(O)cc3)NC(=O)[C@H](CC(=O)O)NC(=O)[C@H](CO)NC(=O)[C@@H](NC(=O)[C@H](Cc3ccccc3)NC(=O)[C@@H](NC(=O)CNC(=O)[C@H](CCC(N)=O)NC(=O)[C@H](CO)NC(=O)[C@@H](N)Cc3c[nH]cn3)[C@@H](C)O)[C@@H](C)O)[C@@H](C)CC)CCC(=O)NCCCC[C@H](NC(=O)[C@H](CCC(N)=O)NC(=O)[C@H](Cc3c[nH]cn3)NC2=O)C(=O)N1)C(=O)N[C@@H](C)C(=O)N[C@@H](Cc1c[nH]c2ccccc12)C(=O)N[C@@H](CC(C)C)C(=O)N[C@@H](CC(C)C)C(=O)N[C@@H](C)C(=O)N[C@@H](CCC(N)=O)C(N)=O [mt-93] | 14.33% | 0.04 nM | 150.00%
CC[C@H](C)[C@H](NC(=O)[C@H](CO)NC(=O)[C@H](Cc1ccc(O)cc1)NC(=O)[C@H](CC(=O)O)NC(=O)[C@H](CO)NC(=O)[C@@H](NC(=O)[C@@H](O)Cc1ccccc1)[C@@H](C)CC)C(=O)N[C@@H](C)C(=O)N[C@@H](CCSC)C(=O)N[C@@H](CC(=O)O)C(=O)N[C@H]1CCC(=O)NCCCC[C@@H](C(=O)N[C@@H](CC(=O)O)C(=O)N[C@@H](Cc2ccccc2)C(=O)N[C@H](C(=O)N[C@@H](CC(N)=O)C(=O)N[C@@H](Cc2c[nH]c3ccccc23)C(=O)N[C@@H](CC(C)C)C(=O)N[C@@H](CC(C)C)C(=O)N[C@@H](C)C(=O)N[C@@H](CCC(N)=O)C(N)=O)C(C)C)NC(=O)[C@H](CCC(N)=O)NC(=O)[C@H](Cc2c[nH]cn2)NC(=O)[C@H]([C@@H](C)CC)NC1=O [mt-113] (H-[PhLac]ISDYSIAMDEIHQKDFVNWLLAQ-NH2; lactam 11-15) | 0.07% | – | 0.04%
CC[C@H](C)[C@@H]1NC(=O)[C@@H](NC(=O)[C@H](CC(=O)O)NC(=O)[C@H](CC(C)C)NC(=O)[C@H](Cc2ccc(O)cc2)NC(=O)[C@H](CCCCN)NC(=O)[C@H](CO)NC(=O)[C@H](Cc2ccc(O)cc2)NC(=O)[C@H](CC(=O)O)NC(=O)[C@H](CO)NC(=O)[C@@H](NC(=O)[C@@H](O)Cc2ccccc2)[C@@H](C)O)CCC(=O)NCCCC[C@@H](C(=O)N[C@@H](CC(=O)O)C(=O)N[C@@H](Cc2ccccc2)C(=O)N[C@H](C(=O)N[C@@H](CC(N)=O)C(=O)N[C@@H](Cc2c[nH]c3ccccc23)C(=O)N[C@@H](CC(C)C)C(=O)N[C@@H](CC(C)C)C(=O)N[C@@H](C)C(=O)N[C@@H](CCC(N)=O)C(N)=O)C(C)C)NC(=O)[C@H](CCC(N)=O)NC(=O)[C@H](Cc2c[nH]cn2)NC1=O [mt-114] (H-[PhLac]TSDYSKYLDEIHQKDFVNWLLAQ-NH2; lactam 11-15) | 0.28% | – | 0.05%
CC[C@H](C)[C@H](NC(=O)[C@H](CO)NC(=O)[C@H](Cc1ccc(O)cc1)NC(=O)[C@H](CC(=O)O)NC(=O)[C@H](CO)NC(=O)[C@@H](NC(=O)[C@H](Cc1ccccc1)NC(=O)[C@@H](NC(=O)CN)[C@@H](C)O)[C@@H](C)O)C(=O)N[C@@H](Cc1ccc(O)cc1)C(=O)N[C@@H](CC(C)C)C(=O)N[C@@H](CC(=O)O)C(=O)N[C@H]1CCC(=O)NCCCC[C@@H](C(=O)N[C@@H](CCC(=O)O)C(=O)N[C@@H](Cc2ccccc2)C(=O)N[C@H](C(=O)N[C@@H](CC(N)=O)C(=O)N[C@@H](Cc2c[nH]c3ccccc23)C(=O)N[C@@H](CC(C)C)C(=O)N[C@@H](CC(C)C)C(=O)N[C@@H](C)C(=O)NCC(N)=O)C(C)C)NC(=O)[C@H](C)NC(=O)[C@H](C)NC(=O)[C@H](CCC(N)=O)NC1=O [mt-197] (H-GTFTSDYSIYLDEQAAKEFVNWLLAG-NH2; lactam 13-17; N-terminus assumed) | 0.13% | – | 0.07%
